Target: T1, Purified P450arom (aromatase) reconstituted with P450-reductase (CPR) (Homo sapiens, UniProt P11511)
T1 sequence (P11511 1-503): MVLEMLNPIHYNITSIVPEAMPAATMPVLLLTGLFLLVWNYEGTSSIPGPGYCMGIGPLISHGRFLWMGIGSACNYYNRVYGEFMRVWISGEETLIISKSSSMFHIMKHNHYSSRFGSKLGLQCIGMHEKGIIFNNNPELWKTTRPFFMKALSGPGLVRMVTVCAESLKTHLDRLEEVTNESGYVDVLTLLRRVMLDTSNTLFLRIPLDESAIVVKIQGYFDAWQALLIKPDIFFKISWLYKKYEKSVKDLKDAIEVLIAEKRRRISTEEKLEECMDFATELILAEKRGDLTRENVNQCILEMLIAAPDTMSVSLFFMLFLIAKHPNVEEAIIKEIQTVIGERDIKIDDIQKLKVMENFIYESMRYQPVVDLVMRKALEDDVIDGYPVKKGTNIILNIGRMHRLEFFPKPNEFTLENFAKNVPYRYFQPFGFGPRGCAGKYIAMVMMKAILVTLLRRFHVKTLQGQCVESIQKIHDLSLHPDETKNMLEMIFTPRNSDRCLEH
Assay: Measurement of aromatase activity by 3H-water method
Assay type: biochemical
Details: substrate 0.24 μM [1β-3H, 4-14C] androstenedione, 37° C., 20 minutes

[1] = compound concentration 0.1 (μmol)
[2] = compound concentration 1 (μmol)
[3] = compound concentration 10 (μmol)

Structure (SMILES)	% Inhibition [1] [%]	% Inhibition [2] [%]	% Inhibition [3] [%]
C[C@]12C=CC(=O)C=C1[C@H](OC/C=C/c1ccccc1)C[C@@H]1[C@@H]2CC[C@]2(C)C(=O)CC[C@@H]12 [HDDG-058, (6R,8R,9S,10R,13S,14S)-6-(cinnamyloxy)-10,13-dimethyl-7,8,9,10,11,12,13,14,15,16-decahydro-3H-cyclopenta[α]phenanthrene-3,17(6H)-dione]	95	94	
CCC#CCO[C@@H]1C[C@@H]2[C@H](CC[C@]3(C)C(=O)CC[C@@H]23)[C@@]2(C)C=CC(=O)C=C12 [HDDG-046, (6R,8S,9S,10R,13S,14S)-10,13-dimethyl-6-(pent-2-yn-1-yloxy)-7,8,9,10,11,12,13,14,15,16-decahydro-3H-cyclopenta[α]phenanthrene-3,17(6H)-dione]	89	96	99
CCOC1=C(O)CC[C@@]2(C)C1=CC[C@@H]1[C@@H]2CC[C@]2(C)C(=O)CC[C@@H]12 [HDDG-034]	14	96	88
CO[C@H]1C[C@@H]2[C@H](CC[C@]3(C)C(=O)CC[C@@H]23)[C@@]2(C)C=CC(=O)C=C12 [HDDG-014]			42
CCCCCO[C@@H]1C[C@@H]2[C@H](CC[C@]3(C)C(=O)CC[C@@H]23)[C@@]2(C)C=CC(=O)C=C12 [HDDG-063, (6R,8R,9S,10R,13S,14S)-10,13-dimethyl-6-(pentyloxy)-7,8,9,10,11,12,13,14,15,16-decahydro-3H-cyclopenta[α]phenanthrene-3,17(6H)-dione]	96	97	
CC(C)(C)O[C@@H]1C[C@@H]2[C@H](CC[C@]3(C)C(=O)CC[C@@H]23)[C@@]2(C)CCC(=O)C=C12 [HDDG-024]	16	78	76
C[C@]12C=CC(O)=C(OCC#Cc3ccccc3)C1=CC[C@@H]1[C@@H]2CC[C@]2(C)C(=O)CC[C@@H]12 [HDDG-038]	22	97	91
C[C@]12C=CC(=O)C(=[N+]=[N-])C1=CC[C@@H]1[C@@H]2CC[C@]2(C)C(=O)CC[C@@H]12 [HDDG-004]		25	40
CCCCO[C@@H]1C[C@@H]2[C@H](CC[C@]3(C)C(=O)CC[C@@H]23)[C@@]2(C)CCC(=O)C=C12 [HDDG-052]	47	95	87
CCC#CCO[C@@H]1C[C@@H]2[C@H](CC[C@]3(C)C(=O)CC[C@@H]23)[C@@]2(C)CCC(=O)C=C12 [HDDG-042]	40	95	99

From US8969327B2, “Substituted androst-4-ene diones” (priority 2010, dated 2015)
